Assay results as given in US12275731B2, “Azaindole inhibitors of wild-type and mutant forms of LRRK2” (DANA-FARBER CANCER INSTITUTE, INC., priority 2018, dated 2025).

Tests used:
Assay in all cases: KinomeScan profiling
Assay type in all cases: binding
[1] = target: T1, ABL1(Y253F)-phosphorylated (Homo sapiens, UniProt P00519, Y253F); details: read-out: % control
T1 construct: purchased KinomeScan®
How it was run: (§1)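 First, compounds in DMSO are added at 1 μM to each of 468 kinase assays. Next, RLU signals are normalised between positive control (0%) and DMSO (100%). Finally, kinases under 35% are flagged active.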

[2] = target: BUB1 (Homo sapiens, UniProt O43683); details: BUB1, 1 μM; read-out: % control
How it was run: as §1

[3] = target: CAMK2B (Homo sapiens, UniProt Q13554); details: read-out: % control
Chain of CAMK2B (Q13554 whole entry): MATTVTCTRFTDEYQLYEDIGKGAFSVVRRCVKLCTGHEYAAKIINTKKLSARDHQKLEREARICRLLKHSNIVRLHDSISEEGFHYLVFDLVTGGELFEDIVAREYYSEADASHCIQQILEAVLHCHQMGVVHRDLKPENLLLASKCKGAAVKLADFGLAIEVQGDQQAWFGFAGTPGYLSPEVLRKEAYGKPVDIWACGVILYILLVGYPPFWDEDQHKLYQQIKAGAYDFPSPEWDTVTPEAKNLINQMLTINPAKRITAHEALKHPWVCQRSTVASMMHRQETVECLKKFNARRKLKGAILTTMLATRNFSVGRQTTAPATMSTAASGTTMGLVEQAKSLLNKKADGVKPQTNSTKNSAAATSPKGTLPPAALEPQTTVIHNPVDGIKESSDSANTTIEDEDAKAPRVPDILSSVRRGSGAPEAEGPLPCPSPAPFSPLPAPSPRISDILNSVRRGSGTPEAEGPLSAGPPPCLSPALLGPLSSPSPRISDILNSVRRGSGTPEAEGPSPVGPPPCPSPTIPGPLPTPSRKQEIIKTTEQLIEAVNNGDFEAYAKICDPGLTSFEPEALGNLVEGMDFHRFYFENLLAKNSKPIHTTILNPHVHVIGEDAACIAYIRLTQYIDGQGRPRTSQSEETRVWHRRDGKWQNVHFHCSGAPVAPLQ
How it was run: as §1

[4] = target: CAMKK1 (Homo sapiens, UniProt Q8N5S9); details: CAMKK1, 1 μM; read-out: % control
How it was run: as §1

[5] = target: CDK5 (Homo sapiens, UniProt Q00535); details: CDK5, 1 μM; read-out: % control
How it was run: as §1

[6] = target: CSNK1D (Homo sapiens, UniProt P48730); details: read-out: % control
How it was run: as §1

[7] = target: CSNK2A1 (Homo sapiens, UniProt P68400); details: CSNK2A1, 1 μM; read-out: % control
Chain of CSNK2A1 (P68400 whole entry): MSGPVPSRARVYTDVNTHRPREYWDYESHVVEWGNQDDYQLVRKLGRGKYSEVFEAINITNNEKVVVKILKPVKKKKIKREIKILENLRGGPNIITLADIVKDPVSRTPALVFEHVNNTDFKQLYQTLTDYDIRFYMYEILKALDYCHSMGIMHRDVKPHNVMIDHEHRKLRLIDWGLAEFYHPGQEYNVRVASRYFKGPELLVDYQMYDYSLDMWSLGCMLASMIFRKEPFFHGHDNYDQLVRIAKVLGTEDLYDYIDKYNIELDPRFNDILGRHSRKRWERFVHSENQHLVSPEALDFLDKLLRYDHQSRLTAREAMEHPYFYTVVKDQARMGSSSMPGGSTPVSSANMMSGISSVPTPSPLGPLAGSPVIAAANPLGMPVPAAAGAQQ
How it was run: as §1

[8] = target: EGFR(G719S) (Homo sapiens, UniProt P00533, G719S); details: read-out: % control
How it was run: as §1

[9] = target: EGFR(L747-E749del, A750P) (Homo sapiens, UniProt P00533, A750P/DEL747-749); details: read-out: % control
Chain of EGFR(L747-E749del, A750P) (P00533 with tags, fused parts or gaps DEL747-749/A750P): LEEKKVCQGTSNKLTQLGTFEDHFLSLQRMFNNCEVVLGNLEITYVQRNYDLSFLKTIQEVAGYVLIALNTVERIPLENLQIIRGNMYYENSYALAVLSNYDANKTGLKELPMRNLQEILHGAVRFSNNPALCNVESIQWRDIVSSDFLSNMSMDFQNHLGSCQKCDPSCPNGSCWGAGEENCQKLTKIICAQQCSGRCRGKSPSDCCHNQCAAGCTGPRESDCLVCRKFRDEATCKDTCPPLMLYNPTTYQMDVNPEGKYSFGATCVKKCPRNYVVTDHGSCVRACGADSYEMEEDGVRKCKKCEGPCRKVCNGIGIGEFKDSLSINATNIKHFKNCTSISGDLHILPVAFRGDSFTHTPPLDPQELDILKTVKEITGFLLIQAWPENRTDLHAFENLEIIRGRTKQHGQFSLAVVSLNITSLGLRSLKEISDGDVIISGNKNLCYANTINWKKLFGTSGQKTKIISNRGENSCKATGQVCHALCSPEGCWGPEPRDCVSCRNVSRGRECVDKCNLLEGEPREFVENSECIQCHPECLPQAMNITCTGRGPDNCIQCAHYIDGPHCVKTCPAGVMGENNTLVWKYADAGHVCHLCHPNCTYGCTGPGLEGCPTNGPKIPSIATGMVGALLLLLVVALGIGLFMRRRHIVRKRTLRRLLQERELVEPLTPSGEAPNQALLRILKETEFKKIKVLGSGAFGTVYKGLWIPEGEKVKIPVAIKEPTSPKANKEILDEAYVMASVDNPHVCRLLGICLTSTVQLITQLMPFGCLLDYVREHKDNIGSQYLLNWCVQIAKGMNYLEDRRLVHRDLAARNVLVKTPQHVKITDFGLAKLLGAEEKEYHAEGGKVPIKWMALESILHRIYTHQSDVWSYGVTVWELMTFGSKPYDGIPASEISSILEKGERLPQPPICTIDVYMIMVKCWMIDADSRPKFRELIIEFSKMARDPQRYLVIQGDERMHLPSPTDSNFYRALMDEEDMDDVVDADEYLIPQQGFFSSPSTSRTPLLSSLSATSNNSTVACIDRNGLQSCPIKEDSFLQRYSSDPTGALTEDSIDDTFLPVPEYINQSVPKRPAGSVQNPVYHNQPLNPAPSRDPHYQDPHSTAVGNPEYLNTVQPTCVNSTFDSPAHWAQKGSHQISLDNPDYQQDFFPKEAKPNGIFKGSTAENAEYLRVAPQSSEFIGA
How it was run: as §1

[10] = target: FGFR3(G697C) (Homo sapiens, UniProt P22607, G697C); details: read-out: % control
How it was run: as §1

[11] = target: T2, KIT(V559D, V654A) (Homo sapiens, UniProt P10721, V559D/V654A); details: read-out: % control
T2 construct: purchased KinomeScan®
How it was run: as §1

[12] = target: T3, MUSK (Homo sapiens, UniProt O15146); details: read-out: % control
T3 sequence (O15146 24-869): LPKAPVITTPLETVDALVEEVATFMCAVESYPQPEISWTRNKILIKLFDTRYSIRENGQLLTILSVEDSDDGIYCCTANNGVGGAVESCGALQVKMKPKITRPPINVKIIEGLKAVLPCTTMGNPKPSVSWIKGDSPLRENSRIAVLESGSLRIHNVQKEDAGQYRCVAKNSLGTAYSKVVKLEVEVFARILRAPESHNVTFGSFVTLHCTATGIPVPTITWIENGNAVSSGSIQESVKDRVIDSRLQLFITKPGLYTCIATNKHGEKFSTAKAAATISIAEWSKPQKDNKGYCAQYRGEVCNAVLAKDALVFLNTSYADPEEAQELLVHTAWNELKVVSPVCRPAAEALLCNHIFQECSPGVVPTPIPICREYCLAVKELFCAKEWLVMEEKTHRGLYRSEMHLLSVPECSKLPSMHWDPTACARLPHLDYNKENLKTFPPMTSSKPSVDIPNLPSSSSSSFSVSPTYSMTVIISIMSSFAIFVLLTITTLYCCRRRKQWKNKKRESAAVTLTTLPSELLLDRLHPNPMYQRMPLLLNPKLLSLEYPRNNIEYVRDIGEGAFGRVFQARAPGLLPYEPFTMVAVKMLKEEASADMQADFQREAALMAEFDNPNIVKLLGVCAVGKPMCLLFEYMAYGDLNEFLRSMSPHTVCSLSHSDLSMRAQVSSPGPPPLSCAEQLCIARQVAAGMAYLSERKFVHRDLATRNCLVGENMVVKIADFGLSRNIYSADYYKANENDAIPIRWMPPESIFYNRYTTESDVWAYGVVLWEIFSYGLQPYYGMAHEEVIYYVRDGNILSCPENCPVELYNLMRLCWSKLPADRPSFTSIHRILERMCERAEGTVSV
How it was run: as §1

[13] = target: NIK (Homo sapiens, UniProt Q99558); details: read-out: % control
Chain of NIK (Q99558 whole entry): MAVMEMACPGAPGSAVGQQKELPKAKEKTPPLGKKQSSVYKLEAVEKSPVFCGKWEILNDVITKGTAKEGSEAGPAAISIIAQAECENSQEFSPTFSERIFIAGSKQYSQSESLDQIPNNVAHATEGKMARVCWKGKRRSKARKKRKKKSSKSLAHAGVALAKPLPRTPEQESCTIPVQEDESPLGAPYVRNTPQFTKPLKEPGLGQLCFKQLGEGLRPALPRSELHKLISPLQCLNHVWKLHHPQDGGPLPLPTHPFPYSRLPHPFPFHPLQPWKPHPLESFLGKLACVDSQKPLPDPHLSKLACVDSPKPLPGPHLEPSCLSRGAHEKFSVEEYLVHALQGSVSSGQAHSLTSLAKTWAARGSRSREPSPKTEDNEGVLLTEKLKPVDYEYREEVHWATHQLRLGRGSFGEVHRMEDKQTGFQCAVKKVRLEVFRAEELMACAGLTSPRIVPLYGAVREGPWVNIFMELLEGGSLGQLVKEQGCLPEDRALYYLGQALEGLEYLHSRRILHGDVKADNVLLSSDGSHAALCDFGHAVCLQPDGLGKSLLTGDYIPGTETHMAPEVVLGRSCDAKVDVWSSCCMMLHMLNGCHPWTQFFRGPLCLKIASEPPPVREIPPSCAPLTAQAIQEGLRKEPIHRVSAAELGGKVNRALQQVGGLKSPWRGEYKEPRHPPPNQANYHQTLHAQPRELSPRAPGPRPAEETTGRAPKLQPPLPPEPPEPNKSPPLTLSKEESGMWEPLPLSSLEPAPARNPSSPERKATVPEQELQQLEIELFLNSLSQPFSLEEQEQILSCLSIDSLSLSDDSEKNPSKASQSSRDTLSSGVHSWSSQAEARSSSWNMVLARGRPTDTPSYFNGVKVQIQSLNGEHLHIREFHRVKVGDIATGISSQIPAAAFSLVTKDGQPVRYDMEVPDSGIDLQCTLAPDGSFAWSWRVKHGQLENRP
How it was run: as §1

[14] = target: PRKCD (Homo sapiens, UniProt Q05655); details: read-out: % control
How it was run: as §1

[15] = target: PRKCH (Homo sapiens, UniProt P24723); details: read-out: % control
Chain of PRKCH (P24723 whole entry): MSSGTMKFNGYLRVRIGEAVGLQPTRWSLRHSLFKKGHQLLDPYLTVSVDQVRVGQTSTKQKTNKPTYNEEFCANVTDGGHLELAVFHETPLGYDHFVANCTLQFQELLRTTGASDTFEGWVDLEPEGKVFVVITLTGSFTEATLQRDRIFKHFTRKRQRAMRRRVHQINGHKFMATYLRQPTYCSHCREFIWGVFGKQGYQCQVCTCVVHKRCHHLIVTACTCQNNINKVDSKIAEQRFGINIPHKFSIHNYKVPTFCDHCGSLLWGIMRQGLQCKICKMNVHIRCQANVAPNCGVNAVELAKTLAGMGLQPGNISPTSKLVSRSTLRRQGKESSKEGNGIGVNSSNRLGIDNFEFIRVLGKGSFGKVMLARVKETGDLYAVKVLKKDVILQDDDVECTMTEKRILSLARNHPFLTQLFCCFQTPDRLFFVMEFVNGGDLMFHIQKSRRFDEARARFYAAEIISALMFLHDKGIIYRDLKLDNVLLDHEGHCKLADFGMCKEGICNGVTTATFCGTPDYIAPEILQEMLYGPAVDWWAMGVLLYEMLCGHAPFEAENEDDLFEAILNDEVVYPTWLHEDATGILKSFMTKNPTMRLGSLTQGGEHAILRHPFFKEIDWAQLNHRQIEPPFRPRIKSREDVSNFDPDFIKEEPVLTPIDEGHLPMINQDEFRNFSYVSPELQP
How it was run: as §1

[16] = target: RET (Homo sapiens, UniProt P07949); details: read-out: % control
Chain of RET (P07949 29-1114): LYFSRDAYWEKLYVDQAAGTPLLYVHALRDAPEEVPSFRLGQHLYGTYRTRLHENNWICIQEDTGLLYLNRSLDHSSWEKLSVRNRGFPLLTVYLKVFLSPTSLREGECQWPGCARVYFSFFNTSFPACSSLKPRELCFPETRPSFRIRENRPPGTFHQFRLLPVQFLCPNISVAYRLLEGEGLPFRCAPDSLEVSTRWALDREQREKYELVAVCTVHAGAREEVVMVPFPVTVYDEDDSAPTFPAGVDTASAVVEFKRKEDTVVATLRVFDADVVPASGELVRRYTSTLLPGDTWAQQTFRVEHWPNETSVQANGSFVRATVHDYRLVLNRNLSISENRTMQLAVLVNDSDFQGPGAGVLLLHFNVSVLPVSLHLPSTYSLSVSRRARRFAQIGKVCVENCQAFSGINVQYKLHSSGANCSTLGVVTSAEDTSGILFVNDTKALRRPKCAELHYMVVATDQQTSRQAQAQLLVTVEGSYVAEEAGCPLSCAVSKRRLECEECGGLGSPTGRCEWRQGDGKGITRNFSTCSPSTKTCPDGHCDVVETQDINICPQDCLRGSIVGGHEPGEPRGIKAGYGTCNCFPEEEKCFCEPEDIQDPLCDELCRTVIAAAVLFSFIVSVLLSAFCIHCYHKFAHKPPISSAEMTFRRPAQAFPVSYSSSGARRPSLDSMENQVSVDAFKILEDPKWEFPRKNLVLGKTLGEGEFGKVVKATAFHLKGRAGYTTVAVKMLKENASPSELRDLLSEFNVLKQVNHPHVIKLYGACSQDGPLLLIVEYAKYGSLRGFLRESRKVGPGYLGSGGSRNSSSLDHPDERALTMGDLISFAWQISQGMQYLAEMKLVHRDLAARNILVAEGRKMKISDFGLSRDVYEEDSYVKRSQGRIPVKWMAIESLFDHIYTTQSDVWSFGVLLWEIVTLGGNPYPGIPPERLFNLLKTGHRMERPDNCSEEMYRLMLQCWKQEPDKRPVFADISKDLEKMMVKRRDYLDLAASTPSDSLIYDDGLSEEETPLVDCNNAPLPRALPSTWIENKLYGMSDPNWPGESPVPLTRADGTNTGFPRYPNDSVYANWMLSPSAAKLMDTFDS
How it was run: as §1

[17] = target: WNK3 (Homo sapiens, UniProt Q9BYP7); details: WNK3, 1 μM; read-out: % control
How it was run: as §1

O=C(c1ccc(-c2cnc3[nH]cc(Cl)c3c2NC2CCCC2)cc1)N1CCC(N2CCOCC2)CC1 [Compound 101, (4-(3-chloro-4-(cyclopentylamino)-1H-pyrrolo[2,3-b]pyridin-5-yl)phenyl)(4-morpholinopiperidin-1-yl)methanone]
remaining binding at 1 µM [1]: 100%
remaining binding at 1 µM [2]: 100%
remaining binding at 1 µM [3]: 99%
remaining binding at 1 µM [4]: 87%
remaining binding at 1 µM [5]: 94%
remaining binding at 1 µM [6]: 92%
remaining binding at 1 µM [7]: 100%
remaining binding at 1 µM [8]: 100%
remaining binding at 1 µM [9]: 88%
remaining binding at 1 µM [10]: 74%
remaining binding at 1 µM [11]: 100%
remaining binding at 1 µM [12]: 67%
remaining binding at 1 µM [13]: 88%
remaining binding at 1 µM [14]: 88%
remaining binding at 1 µM [15]: 73%
remaining binding at 1 µM [16]: 85%
remaining binding at 1 µM [17]: 92%

CNc1c(-c2cnn([C@H]3CCN(C(C)=O)C[C@@H]3F)c2)cnc2[nH]cc(Cl)c12 [Compound 77, 1-((3S,4S)-4-(4-(3-chloro-4-(methylamino)-1H-pyrrolo[2,3-b]pyridin-5-yl)-1H-pyrazol-1-yl)-3-fluoropiperidin-1-yl)ethan-1-one]
remaining binding at 1 µM [1]: 79%
remaining binding at 1 µM [2]: 80%
remaining binding at 1 µM [3]: 100%
remaining binding at 1 µM [4]: 74%
remaining binding at 1 µM [5]: 91%
remaining binding at 1 µM [6]: 84%
remaining binding at 1 µM [7]: 75%
remaining binding at 1 µM [8]: 100%
remaining binding at 1 µM [9]: 100%
remaining binding at 1 µM [10]: 51%
remaining binding at 1 µM [11]: 53%
remaining binding at 1 µM [12]: 100%
remaining binding at 1 µM [13]: 55%
remaining binding at 1 µM [14]: 100%
remaining binding at 1 µM [15]: 83%
remaining binding at 1 µM [16]: 27%
remaining binding at 1 µM [17]: 86%

CNc1c(-c2ccc(C(=O)N3CCC(N4CCOCC4)CC3)cc2)cnc2[nH]cc(Cl)c12 [Compound 96, (4-(3-chloro-4-(methylamino)-1H-pyrrolo[2,3-b]pyridin-5-yl)phenyl)(4-morpholinopiperidin-1-yl)methanone]
remaining binding at 1 µM [1]: 98%
remaining binding at 1 µM [2]: 86%
remaining binding at 1 µM [3]: 100%
remaining binding at 1 µM [4]: 78%
remaining binding at 1 µM [5]: 97%
remaining binding at 1 µM [6]: 90%
remaining binding at 1 µM [7]: 72%
remaining binding at 1 µM [8]: 100%
remaining binding at 1 µM [9]: 100%
remaining binding at 1 µM [10]: 55%
remaining binding at 1 µM [11]: 94%
remaining binding at 1 µM [12]: 100%
remaining binding at 1 µM [13]: 13%
remaining binding at 1 µM [14]: 94%
remaining binding at 1 µM [15]: 92%
remaining binding at 1 µM [16]: 80%
remaining binding at 1 µM [17]: 73%
